Measurements reported in paper PMC4159853 (2014).

Tests used:
[1] = system: R12.23 (DNA, aptamer) TGTACCGTCTGAGCGATTCGTACGAACGGCTTTGTACTGTTTGCACTGGCGGATTTAGCCAGTCAGTGTTAAGGAGTGC; test: competitive elution of fluorescent ssDNA from target beads; conditions: 100 mM NaCl, 2 mM MgCl2; 20 mM Tris-HCl, 10% methanol; 100 µM eluent, 5 nM ssDNA; buffer alone 0.15; from immobilised desethyl atrazine
[2] = system: 34-base truncation of R12.23 (DNA, aptamer) TACTGTTTGCACTGGCGGATTTAGCCAGTCAGTG; test: bead capture from processed river water, capillary electrophoresis quantification; conditions: 100 mM NaCl, 2 mM MgCl2; 20 mM Tris-HCl; extract of river water spiked with 40 nM; 37% (1.5 nmol) recovered
[3] = system: R12.23 (DNA, aptamer) TGTACCGTCTGAGCGATTCGTACGAACGGCTTTGTACTGTTTGCACTGGCGGATTTAGCCAGTCAGTGTTAAGGAGTGC; test: fluorescence saturation bead-based binding assay; conditions: 100 mM NaCl, 2 mM MgCl2; immobilised compound; 20 mM Tris-HCl, 10% methanol; reported by authors as Kd for atrazine
[4] = system: R12.28 (DNA, aptamer) TGTACCGTCTGAGCGATTCGTACCATTAGTGGGTGCTCCTTACCTGATGGTCATCTAGCCAGTCAGTGTTAAGGAGTGC; test: fluorescence saturation bead-based binding assay; conditions: 100 mM NaCl, 2 mM MgCl2; immobilised compound; 20 mM Tris-HCl, 10% methanol; reported as Kd for atrazine; some non-specific bead binding
[5] = system: R12.57 (DNA, aptamer) TGTACCGTCTGAGCGATTCGTACGGATTGGGTTTGCACTTTACCTGCGGTGCATCGCAGCCAGTCAGTGTTAAGGAGTGC; test: fluorescence saturation bead-based binding assay; conditions: 100 mM NaCl, 2 mM MgCl2; immobilised compound; 20 mM Tris-HCl, 10% methanol; reported as Kd for atrazine; some non-specific bead binding

Normalized Average Fluorescence [1] | Compound | also measured
1 ± 0.11 | CCNc1nc(Cl)nc(NC(C)C)n1 | binding [2]: yes
0.64 ± 0.11 | O=C(O)COc1ccc(Cl)cc1Cl | –
−0.054 ± 0.44 | CC(C)Nc1nc(N)nc(Cl)n1 | –
0.47 ± 0.10 | Nc1nc(N)nc(Cl)n1 | –
0.65 ± 0.13 | CCC(=O)Nc1ccc(Cl)c(Cl)c1 | –
0.47 ± 0.14 | CCNc1nc(Cl)nc(NCC)n1 | –
– | CC(C)Nc1nc(Cl)nc(NC(=O)CCCCCNC(=O)CCCC[C@@H]2SC[C@@H]3NC(=O)N[C@@H]32)n1 | Kd [3]: 0.62 ± 0.21 nM; Kd [4]: 5.10 ± 1.32 nM; Kd [5]: 20.78 ± 4.74 nM
